Assay results from article PMC4684791 (Bioorganic & medicinal chemistry letters, 2015).

Assay: Microsomal stability assay
Format: in vitro ADME, rat

## COc1cc(NC(=O)c2ccccn2)ccc1Cl [Compound 2, ML128]
Rat liver microsome, t1/2=ln2/κ
  Stability κ (decay constant, slope of log concentration vs time profile): 0.116 min^−1
rat, liver microsomes
  half-life: 5.99 min
